Measurements from patent publication US5888993A, “Vanadium compounds in the treatment of elevated blood sugar levels” (The University of British Columbia, priority 1997, dated 1999).
“And” between values parts separate entries of the source, which are not always exact repeats. Identical values can stand only once.

Experiments:
diabetic rats [1] = experiment: Glucose time course after gavage of ammonium bis(maltolato)dioxovanadate in STZ diabetic rats; type: in vivo, male Wistar rats; details: 0.55 mmoles/kg gavage
Experimental: Six male Wistar rats, weighing 175-200 gm, were made diabetic by the intravenous injection of 60 mg/kg of streptozotocin dissolved in 0.9% saline via the tail vein. Seven days after the injection the rats were diabetic having an average glucose concentration of 24.20 mM. 0.55 mmoles/kg of the ammonium salt of bis(maltolato)dioxovanadate suspended in 3% acacia was gavaged into the rats. Blood was collected and analyzed for glucose as a function of time.

Na^+ -K^+ ATPase = details: cited from earlier work
diabetic rats [2] = experiment: Comparative testing, plasma glucose after oral gavage in STZ diabetic rats; type: in vivo, male wistar rats; details: oral gavage 1 mmol/kg
Experimental: Diabetes was induced in all animals by a single intravenous injection of streptozotocin (STZ) 60 mg/kg in 0.9% NaCl via the tail vein. Three days after STZ injection, blood was collected from the tail by nicking the tail tip and expressing the blood into heparinized capillary tubes. Blood was centrifuged at 20,000 g for 10 minutes to separate the plasma. Glucose analysis was done immediately on the plasma sample using a Boehringer Mannheim kit. […] One week after STZ injection animals were randomly divided into 3 pairs of rats. Each pair of rats received by oral gavage 1 mmol/kg of BMOV or VO(Sal)2 or VO(acac)2, suspended in 3% acacia.

[3] = tested on: rats made diabetic with streptozoticin (STZ); details: oral / drinking water; cited from earlier work
[4] = in vivo; cited from earlier work
[5] = in vivo; cited from earlier work; remark: listed apart in the source
red blood cells = details: cytoplasm; cited from earlier work
[6] = cited from earlier work
rat adipocytes = details: in vitro; cited from earlier work
[7] = log p (partition coefficient); type: physicochemical
diabetic rats [8] = experiment: Comparison of BMOV and vanadyl kojate, acute time course of plasma glucose, rats made diabetic with STZ; type: in vivo, rat; design: plasma glucose level: unit not given here
Experimental: Using BMOV and Vanadyl Kojate as prepared in Examples 1 and 2 above, the relative efficacy of the two compounds was assessed using rats made diabetic with STZ. Again the animals were divided into responder and non-responder groups. For a 0.063 mmol V/kg ip injection, BMOV gave a 50:50 split between responder and non-responder groups whereas for vanadyl kojate the ratio was 60:40. On oral gavage of 0.55 mmol V/kg the responder:non-responder ratios were 50:50 and 57:43 respectively (n=10). However over a 12 day test period, there was a 100% response in terms of blood glucose reduction for diabetic rats receiving vanadyl kojate orally.

[9] = tested on: spontaneously hypertensive rats (SHR); experiment: Blood pressure reduction by vanadyl sulphate, spontaneously hypertensive rats; type: in vivo, rat; details: for systolic blood pressure / hypertension, prevention: 75-125 mg/kg/day in drinking water
Experimental: (§1) The insulin resistant spontaneously hypertensive rat was used as the experiment model and the vanadyl form of vanadium as the experimental intervention. […] Rats, procured at 4 weeks of age, were divided
(§2) into 4 groups: SHR (untreated), SHRV (treated), WKY (untreated), WKYV (treated). Chronic vanadyl sulfate treatment (0.75 mg/ml ad libitum in the drinking water) was started on the SHRV and WKYV groups at 5 weeks of age. After week 8, when hypertension becomes fully manifest in the SHR, weekly measurements of plasma insulin and systolic blood pressure (tail cuff method) were done on all four groups.
(§3) At week 11, the untreated control SHR and WKY groups from the prevention study were further subdivided and half the animals in each group were started on oral vanadyl sulfate treatment. This was done to observe the reversal effects of vanadyl, if any, after the SHR had become hypertensive. […] A direct blood pressure reading done in all groups at termination validated the earlier indirect measurements. Vanadyl sulfate prevented as well as reversed hypertention in the hyperinsulinemic spontaneously hypertensive rat, a model that closely resembles human essential hypertension. Besides establishing further the role that insulin resistance/hyperinsulinemia may play in the development of high blood pressure, this study also indicated a possible therapeutic role for vanadyl sulfate in hypertensive, hyperinsulinemic subjects.

Wistar Kyoto (WKY) rats = experiment: Blood pressure study with vanadyl sulphate, normotensive Wistar Kyoto rats; type: in vivo, rat; details: for changes in normotensive animals, prevention: WKYV; for effect in Wistar Kyoto rats, reversal: WKYV1, treatment from week 11
Experimental: as §1, §2, §3

STZ-diabetic rats = experiment: Comparison of BMOV and ETHYLBMOV, plasma glucose and insulin in STZ-diabetic rats; type: in vivo, rat; details: 0.6 mmol kg^-1, one oral gavage, 24 hour period
Experimental: Animal studies were conducted in STZ-diabetic rats comparing doses of 0.6 mmol kg^-1 for VO(ma)2 (BMOV) and VO(ema)2 (ETHYLVMOV). FIGS. 8 and 9 respectively show plasma glucose and plasma insulin values recorded over 24 hour periods after one oral gavage of a water solution of either BMOV or ETHYLBMOV, in order to compare their efficacies.

[10] = 0 h, individual rats (two per drug)
[11] = SHRV, 75-125 mg/kg/day, weeks 8-12

Cc1occc(=O)c1[O-].Cc1occc(=O)c1[O-].[NH4+].[O]=[V+]=[O] [Ammonium bis(maltolato)dioxovanadate]
reduction of elevated glucose levels, in words (diabetic rats [1]): effective in reducing the elevated glucose levels | Glucose (diabetic rats [1]; 0 h): 24.2 mM | Glucose (diabetic rats [1]; 1 h): 24.4 mM | Glucose (diabetic rats [1]; 2 h): 25.5 mM | Glucose (diabetic rats [1]; 4 h): 24.7 mM | Glucose (diabetic rats [1]; 8 h): 22.3 mM | Glucose (diabetic rats [1]; 12 h): 20.1 mM | Glucose (diabetic rats [1]; 24 h): 14.9 mM

[Na+].[Na+].[Na+].[O]=[V]([O-])([O-])[O-] [Sodium orthovanadate]
inhibition of Na^+ -K^+ ATPase (Na^+ -K^+ ATPase): potent inhibitor

O=Cc1ccccc1[O-].O=Cc1ccccc1[O-].[O]=[V+2] [VO(Sal)2, Bis(salicylaldehyde)oxovanadium(IV)]
plasma glucose level (diabetic rats [2]; [10]): 21.09 mM and 21.12 mM | plasma glucose level (diabetic rats [2]; 2 h, individual rats): 22.77 mM and 22.31 mM | plasma glucose level (diabetic rats [2]; 4 h, individual rats): 20.18 mM and 21.74 mM | plasma glucose level (diabetic rats [2]; 6 h, individual rats): 20.67 mM and 21.85 mM | plasma glucose level (diabetic rats [2]; 8 h, individual rats): 21.57 mM and 21.59 mM | plasma glucose level (diabetic rats [2]; 12 h, individual rats): 19.24 mM and 19.74 mM | plasma glucose level (diabetic rats [2]; 24 h, individual rats): 18.73 mM and 18.64 mM

CC(=O)/C=C(/C)[O-].CC(=O)/C=C(/C)[O-].[O]=[V+2] [VO(acac)2, Bis(acetylacetonate)oxovanadium(IV)]
plasma glucose level (diabetic rats [2]; [10]): 23.87 mM and 22.74 mM | plasma glucose level (diabetic rats [2]; 2 h, individual rats): 22.91 mM and 24.5 mM | plasma glucose level (diabetic rats [2]; 4 h, individual rats): 22.37 mM and 22.89 mM | plasma glucose level (diabetic rats [2]; 6 h, individual rats): 23.96 mM and 22.94 mM | plasma glucose level (diabetic rats [2]; 8 h, individual rats): 27.19 mM and 23.65 mM | plasma glucose level (diabetic rats [2]; 12 h, individual rats): 19.13 mM and 18.86 mM | plasma glucose level (diabetic rats [2]; 24 h, individual rats): 2.43 mM | death (diabetic rats [2]; 24 h, rat 5): dead

[O]=[V]([O-])([O-])[O-] [vanadate]
blood glucose [3]: decreased the elevated blood glucose | cardiac performance / secondary complications of diabetes [3]: prevented the depression of cardiac performance | absorption from the gastrointestinal tract [4]: poorly absorbed | toxicity [5]: toxic | reduction of vanadate in red blood cells (red blood cells): reduced to vanadium (IV) | in vivo reduction [6]: reduced in vivo to vanadyl

[O]=[V+2] [vanadyl ion]
insulin-like stimulation of glucose oxidation (rat adipocytes): insulin-like stimulation of glucose oxidation

[O]=[V-2]12([O]C3=COC(CO)=CC3=[O+]1)[O]C1=COC(CO)=CC1=[O+]2 [vanadyl kojate, Bis(kojato)oxovanadium(IV)]
log p [7]: 0.012 | plasma glucose level (diabetic rats [8]; i.p. 0.063 mmol/kg, nonresponders (DTN), 0 h): 20.86 | plasma glucose level (diabetic rats [8]; i.p. 0.063 mmol/kg, nonresponders (DTN), 1 h): 18.55 | plasma glucose level (diabetic rats [8]; i.p. 0.063 mmol/kg, nonresponders (DTN), 2 h): 16.62 | plasma glucose level (diabetic rats [8]; i.p. 0.063 mmol/kg, nonresponders (DTN), 4 h): 17.37 | plasma glucose level (diabetic rats [8]; i.p. 0.063 mmol/kg, nonresponders (DTN), 6 h): 16.62 | plasma glucose level (diabetic rats [8]; i.p. 0.063 mmol/kg, nonresponders (DTN), 8 h): 15.49 | plasma glucose level (diabetic rats [8]; i.p. 0.063 mmol/kg, nonresponders (DTN), 12 h): 18.24 | plasma glucose level (diabetic rats [8]; i.p. 0.063 mmol/kg, nonresponders (DTN), 24 h): 18.77 | plasma glucose level (diabetic rats [8]; i.p. 0.063 mmol/kg, responders (DTR), 0 h): 17.94 | plasma glucose level (diabetic rats [8]; i.p. 0.063 mmol/kg, responders (DTR), 1 h): 14.75 | plasma glucose level (diabetic rats [8]; i.p. 0.063 mmol/kg, responders (DTR), 2 h): 10.17 | plasma glucose level (diabetic rats [8]; i.p. 0.063 mmol/kg, responders (DTR), 4 h): 9.26 | plasma glucose level (diabetic rats [8]; i.p. 0.063 mmol/kg, responders (DTR), 6 h): 8.73 | plasma glucose level (diabetic rats [8]; i.p. 0.063 mmol/kg, responders (DTR), 8 h): 7.4 | plasma glucose level (diabetic rats [8]; i.p. 0.063 mmol/kg, responders (DTR), 12 h): 10.37 | plasma glucose level (diabetic rats [8]; i.p. 0.063 mmol/kg, responders (DTR), 24 h): 13.28 | plasma glucose level (diabetic rats [8]; oral gavage 0.55 mmol/kg, nonresponders (DTN), 0 h): 23.08 | plasma glucose level (diabetic rats [8]; oral gavage 0.55 mmol/kg, nonresponders (DTN), 1 h): 21.18 | plasma glucose level (diabetic rats [8]; oral gavage 0.55 mmol/kg, nonresponders (DTN), 2 h): 21.51 | plasma glucose level (diabetic rats [8]; oral gavage 0.55 mmol/kg, nonresponders (DTN), 4 h): 20.57 | plasma glucose level (diabetic rats [8]; oral gavage 0.55 mmol/kg, nonresponders (DTN), 6 h): 18.2 | plasma glucose level (diabetic rats [8]; oral gavage 0.55 mmol/kg, nonresponders (DTN), 8 h): 19.06 | plasma glucose level (diabetic rats [8]; oral gavage 0.55 mmol/kg, nonresponders (DTN), 12 h): 18.81 | plasma glucose level (diabetic rats [8]; oral gavage 0.55 mmol/kg, nonresponders (DTN), 24 h): 25.0 | plasma glucose level (diabetic rats [8]; oral gavage 0.55 mmol/kg, responders (DTR), 0 h): 15.75 | plasma glucose level (diabetic rats [8]; oral gavage 0.55 mmol/kg, responders (DTR), 1 h): 12.5 | plasma glucose level (diabetic rats [8]; oral gavage 0.55 mmol/kg, responders (DTR), 2 h): 10.1 | plasma glucose level (diabetic rats [8]; oral gavage 0.55 mmol/kg, responders (DTR), 4 h): 7.96 | plasma glucose level (diabetic rats [8]; oral gavage 0.55 mmol/kg, responders (DTR), 6 h): 6.6 | plasma glucose level (diabetic rats [8]; oral gavage 0.55 mmol/kg, responders (DTR), 8 h): 6.87 | plasma glucose level (diabetic rats [8]; oral gavage 0.55 mmol/kg, responders (DTR), 12 h): 6.01 | plasma glucose level (diabetic rats [8]; oral gavage 0.55 mmol/kg, responders (DTR), 24 h): 6.74 | food and fluid demand (diabetic rats [8]; oral, 12 day test period): significantly reduced | response in terms of blood glucose reduction (diabetic rats [8]; oral, 12 day test period): 100%

O=S(=O)([O-])[O-].[O]=[V+2] [vanadyl sulfate]
hypertension / blood pressure, reversal ([9]; SHRV1, treatment from week 11): reversed hypertension | plasma insulin, reversal ([9]; SHRV1, treatment from week 11): lowering their plasma insulin to control values | hypertension / blood pressure, reversal ([9]; SHRV1, treatment from week 11, listed as vanadyl): reduce the blood pressure | systolic blood pressure / hypertension, prevention ([9]; SHRV, weeks 8-12): lowered both plasma insulin and systolic blood pressure | systolic blood pressure / hypertension, prevention ([9]; SHRV, weeks 8-12, listed as vanadyl): prevents the onset of hypertension | plasma glucose levels [9, 11]: without causing any change in the plasma glucose levels | plasma insulin, prevention [9, 11]: lowered both plasma insulin and systolic blood pressure | gastrointestinal, renal or hepatic toxicity ([9]; treated animals, 75-125 mg/kg/day, entire experimental period): No gastrointestinal, renal or hepatic toxicity | changes in normotensive animals, prevention (Wistar Kyoto (WKY) rats): No changes were seen | effect in Wistar Kyoto rats, reversal (Wistar Kyoto (WKY) rats): no effect | effect in Wistar Kyoto rats, reversal (Wistar Kyoto (WKY) rats; listed as vanadyl): no effect is observed | changes in normotensive animals, prevention (Wistar Kyoto (WKY) rats; listed as vanadyl): No change is observed | adverse effect on normal animals (hypotension) (Wistar Kyoto (WKY) rats; normal animals): no adverse effect on normal animals | blood glucose [3]: lowers blood glucose and blood lipids | cardiac performance / secondary complications of diabetes [3]: prevents secondary complications of diabetes such as cataracts and cardiac dysfunction | absorption from the gastrointestinal tract [4]: poorly absorbed | toxicity [5]: less toxic than the vanadate form of vanadium

Bis(ethylmaltolato)oxovanadium(IV) [ETHYLBMOV]
plasma glucose, difference BMOV vs ETHYLBMOV (STZ-diabetic rats): statistically insignificant | plasma insulin, difference BMOV vs ETHYLBMOV (STZ-diabetic rats): statistically insignificant
